Common to all, as to assay type: in vivo, mouse
The subject of one test is RGCs in WT retina. In words: MEA recording of photoswitch (QAQ, BENAQ) photosensitization in WT retina. The settings on record: WT retina, 3-7 days after intravitreal injection. As to the method:
(§1) Intravitreal Injections. Before injection, mice were anesthetized with isoflurane (2%) and their pupils were dilated with tropicamide (1%) and phenylephrine (2.5%). Proparacaine (0.5%) was used as a topical analgesic. Genteal was applied under a glass coverslip to keep the cornea lubricated. An incision was made through the sclera below the ora serrata with a 30G needle and ˜1 μl of solution was injected into the vitreous with a blunt-ended 33G Hamilton syringe. After injection, the antibiotic tobramycin (0.3%) was applied to the eye. Final drug concentrations after intravitreal injection were: all-trans retinoic acid (ATRA, 100 nM), liarozole (100 μM), diethylaminobenzaldehyde (DEAB, 20 μM), citral (50 μM), BMS-493 (500 nM), and retinaldehyde (1 μM). The above values correspond to the final concentration in the eye after injecting 1 μl of drug accounting for a 5-fold dilution. An injection of PBS including 1% DMSO was used as vehicle control.
(§2) Multi Electrode Array Recordings. For extracellular recordings, a flat-mounted retina was placed ganglion cell layer down onto a 60-electrode Multi-Electrode Array (MEA 1060-2-BC, Multi-Channel Systems). After mounting the retina, photoswitches were applied for 30 min, followed by a 15 min wash. BENAQ was applied at a concentration of 100 μM and QAQ at 300 μM. A solution containing a mixture of neurotransmitter receptor blockers isolated RGCs from synaptic inputs: (in μM) 10 AP4, 40 DNQX, 30 AP5, 10 SR-95531, 50 TPMPA, 10 strychnine, and 50 tubocurarine. Extracellular spikes were high-pass filtered at 200 Hz and digitized at 20 kHz and were counted when exceeding 4 SD from the mean background voltage signal. Typically, each electrode recorded spikes from one to three individual RGCs. Principal component analysis of the spike waveforms was used for sorting spikes generated by individual cells (Offline Sorter, Plexon). Stimulation light was generated from a mercury arc lamp. Unfiltered broad spectrum light was used for BENAQ-treated retinas. Narrow band optical filters (Chroma) were used to deliver alternating intervals of 380 nm and 500 nm for stimulation of QAQ-treated as described previously (5,12). The Photoswitch Index (5) (PI) was established for individual retinas in light/darkness for treatment with BENAQ or in 380 nm/500 nm light for treatment with QAQ (11,12).
(§3) Injections. Intravitreal injections: Adult mice and rats were intravitreally injected with drugs or viruses. Before injection, animals were anesthetized with isoflurane (2%) and their pupils were dilated with tropicamide (1%) and phenylephrine (2.5%). Proparacaine (0.5%) was used as a topical analgesic. Genteal was applied under a glass coverslip to keep the cornea lubricated. An incision was made through the sclera below the ora serrata with a 30G needle. Solutions were injected into the vitreous with a blunt-ended 33G Hamilton syringe. After injection, the antibiotic tobramycin (0.3%) was applied to the eye. Final drug concentrations (after 5-fold dilution in the vitreous) were: 100 nM all-trans retinoic acid (ATRA), 100 μM liarozole (24), 20 μM diethylaminobenzaldehyde (DEAB) (28,93), 50 μM citral, 500 nM BMS 493 (85), 1 μM retinaldehyde, and vehicle comprising of 1× phosphate buffered saline (PBS) containing 1% dimethyl sulfoxide (DMSO). Intravitreal injections were performed using AAV2 serotype only. WT and rd1 mice were injected with the RAR-reporter virus or the RARDN virus, at age 1-1.5 month-old. WT and s334ter rats were injected with the RAR-reporter virus at age 3-4 month-old. Final volume of injections was 1-1.5 μL for mice and 5 μL for rats.
Multi Electrode Array Recordings. Flat-mounted retina was placed ganglion cell layer down onto a 60-electrode Multi-Electrode Array (MEA 1060-2-BC, Multi-Channel Systems). After mounting the retina was left to dark adapt for 20 minutes under constant perfusion with oxygenated saline at 34° C. 300 μM QAQ at was applied for 30 min, followed by a 5 min wash. […]

Another test relates to RGCs in rd10 retina. The experiment in a line: MEA recording of light-flash responses in partially degenerated rd10 retina. The protocol: as §1, §2
Data Analysis and Statistics. Unless otherwise stated, all statistical significance (p-value) calculations were performed using the two-tailed unpaired Student's t test. Results with p<0.05 were considered significant. P-values are: *<0.05, **<0.01, ***<0.001. Pairwise comparisons for non-parametric data employed the Wilcoxon Rank Sum Test or the Mann-Whitney U-test. In the case where ANOVA was employed, bootstrapping was used to account for unequal group sizes and a Tukey HSD test was employed as a post-hoc test to define which comparisons and interactions produced statistically significant changes. A modified Thompson-Tau method was employed for the detection of outliers. Non-normal data distributions were analyzed using the Kruskal-Wallis ANOVA with a Dunn's post hoc test. Sigmoidal curves were fit using OriginPro™ and the output curves for vehicle and BMS-493 are y=START+(END−START)*x^n/(k^n+x^n).
Injections. Intravitreal injections: Adult mice and rats were intravitreally injected with drugs or viruses. Before injection, animals were anesthetized with isoflurane (2%) and their pupils were dilated with tropicamide (1%) and phenylephrine (2.5%). Proparacaine (0.5%) was used as a topical analgesic. Genteal was applied under a glass coverslip to keep the cornea lubricated. An incision was made through the sclera below the ora serrata with a 30G needle. Solutions were injected into the vitreous with a blunt-ended 33G Hamilton syringe. After injection, the antibiotic tobramycin (0.3%) was applied to the eye. […]

Test [1] has as its system RGCs in rd1 retina. The experiment in a line: MEA recording of RGC spontaneous activity in darkness, rd1 retina. The protocol: as §1
Multi Electrode Array Recordings. For extracellular recordings, a flat-mounted retina was placed ganglion cell layer down onto a 60-electrode Multi-Electrode Array (MEA 1060-2-BC, Multi-Channel Systems). […] Extracellular spikes were high-pass filtered at 200 Hz and digitized at 20 kHz and were counted when exceeding 4 SD from the mean background voltage signal. Typically, each electrode recorded spikes from one to three individual RGCs. […]

The subject of test [2] is RGCs in rd1 retina. The experiment in a line: MEA recording of photoswitch (QAQ, BENAQ) photosensitization in rd1 retina. As to the method:
as §1, §2
as §3, with “WT and s334ter rats were injected with the RAR-reporter virus at age 3-4 month-old. Final volume of injections was 1-1.5 μL for mice and 5 μL for rats.” left out

Results on two molecules are retold here after US20240398738A1, “MANIPULATION OF THE RETINOIC ACID SIGNALING PATHWAY” (THE REGENTS OF THE UNIVERSITY OF CALIFORNIA, priority 2017, published 2024).

Entries after “also recorded” stand apart in the source; their conditions may differ.

On to `CC1=C(/C=C/C(C)=C/C=C/C(C)=C/C(=O)O)C(C)(C)CCC1` [ATRA, all-trans retinoic acid], for which the “QAQ photosensitization of WT retina, in words” value with RGCs in WT retina was “Neither ATRA nor liarozole alone enabled significant QAQ photosensitization”. In addition, in the test on RGCs in WT retina (QAQ 300 μM, mean±SEM), the “Photoswitch Index (PI) with QAQ” value was 0.1±0.05.
Turning to `CC1(C)CC=C(C#Cc2ccccc2)c2cc(/C=C/c3ccc(C(=O)O)cc3)ccc21` [BMS-493], the “I50, midpoint of the intensity vs. response curve” value in the test on RGCs in rd10 retina (6-week-old rd10, 3-7 days after intravitreal injection, vehicle eye 1.73 μW) was found to be 0.35 μW. Moreover, the “Max, peak response (ratio of firing rate in the light:dark)” value in the test with RGCs in rd10 retina (6-week-old rd10, 3-7 days after intravitreal injection, vehicle eye 3.68) stood at 4.77. Besides, the “RGC response to a flash of dim light, in words” value in the test with RGCs in rd10 retina (rd10, 50 ms flash, 0.2 μW, vehicle-treated retinas showed no response) is recorded as “shows a response in BMS-493 injected animals but not vehicle injected mice; also recorded: transient increase in RGC firing in response to a brief flash (50 ms) of dim light”. The “background (spontaneous) firing in darkness, in words” value in the test on RGCs in rd10 retina (rd10, BMS-493-injected eye) is reported as “reduced spontaneous activity; also recorded: decrease in the background firing rate in darkness”. The “response threshold (light intensity)” value in the test on RGCs in rd10 retina (rd10, BMS-493-injected eye, vehicle-injected 0.85 μW) was 0.2 μW. For the same molecule, in the test with RGCs in rd10 retina (rd10, n=5, paired), the “light response compared between drug-injected and vehicle-injected eye of each animal, in words” value is on record as “significantly increased light response in every subject; also recorded: observed in all 5 animals tested; also recorded: enhanced the light response in all mice tested”. For the same molecule, in the test on RGCs in rd10 retina (rd10, range of light intensities, versus vehicle), the “shift of the intensity-response curve, in words” value was “leftward and upward shift of fitted sigmoidal curves; also recorded: increase in sensitivity and peak response to light”. The “spontaneous firing of rd1 RGCs (mean Firing Rate)” value in the test with RGCs in rd1 retina [1] (rd1, 3-7 days after a single intravitreal injection of BMS-493, control 5.13±0.74 Hz) is reported as 2.67±0.33 Hz. Besides, the “spontaneous firing rates versus controls, in words” value in the test on RGCs in rd1 retina [1] (rd1 retina, BMS-493 0.5 μM 3-7 days before, or AAV2-RARDN injected at P30, recorded at P90) is given as “significantly lower”. The “QAQ photosensitization of rd1 retina, in words” value in the test with RGCs in rd1 retina [2] (rd1 mice injected intravitreally with BMS-493) is “prevented QAQ photosensitization”. In addition, in the test on RGCs in rd1 retina [2] (rd1 retina treated with BMS-493 (intravitreal, 3-7 days), BENAQ, white light/darkness, mean±SEM), the “Photoswitch Index (PI) with BENAQ” value worked out at 0.35±0.05. The “Photoswitch Index (PI) with QAQ” value in the test with RGCs in rd1 retina [2] (rd1 retina treated with BMS-493 (intravitreal, 3-7 days), QAQ 300 μM, 380/500 nm, mean±SEM) was determined as 0.15±0.06.
